As a reminder, the inhibition is the change of the read-out against control, counted positive when it falls.

In this experiment the target is T1, human recombinant (CHO cell) AT1 receptor (Homo sapiens, UniProt P30556).
T1 construct: expressed in transfected cells; host or cells: CHO cells
T1 sequence (P30556 1-359): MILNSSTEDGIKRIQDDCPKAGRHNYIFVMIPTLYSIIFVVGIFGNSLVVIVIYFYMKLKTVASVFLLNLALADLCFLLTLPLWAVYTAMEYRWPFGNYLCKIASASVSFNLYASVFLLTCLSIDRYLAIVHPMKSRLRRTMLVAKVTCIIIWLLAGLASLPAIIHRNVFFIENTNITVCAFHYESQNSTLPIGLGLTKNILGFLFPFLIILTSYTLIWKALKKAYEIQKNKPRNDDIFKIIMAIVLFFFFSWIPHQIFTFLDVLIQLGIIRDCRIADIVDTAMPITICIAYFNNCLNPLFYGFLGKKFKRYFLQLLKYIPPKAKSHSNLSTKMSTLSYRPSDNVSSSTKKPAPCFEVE
Briefly: Angiotensin II inhibition test (radioligand binding to AT1 receptor). To be noted: test compound concentration 10^−9 M, radioactive iodine-labeled angiotensin II, 37° C., sixty minutes; for inhibition at 0.001 µM: read-out: Inhibition rate (%). The protocol:
A test of inhibition of angiotensin II to human recombinant (CHO cell) AT1 receptor following a method described in the literature (for example, Regul. Pept., vol. 44 (2), page 131 (1993)) was used to measure inhibitory activity to a test compound.
The ligand used was 10^−9 M of a test compound dissolved in 1% DMSO (dimethylsulfoxide). This was reacted with radioactive iodine-labeled angiotensin II at 37° C. for sixty minutes. Taking the inhibition rate of angiotensin II at 10 μM as nonspecific binding, the specific binding rate was calculated by subtracting this nonspecific portion. Table 6 indicates the results (the inhibition rate at test compound concentration: 10^−9 M)

As to `CCCc1nc2c(C)cc(COc3ccc4nc(COc5ccc(CC6SC(=O)NC6=O)cc5)n(C)c4c3)cc2n1Cc1ccc(-c2ccccc2-c2nnn[nH]2)cc1` (centres unmarked) [Example 1, 5-(4-{6-[4-methyl-2-propyl-1-[2′-(1H-tetrazol-5-yl)biphenyl-4-ylmethyl]-1H-benzimidazol-6-ylmethoxy]-1-methyl-1H-benzimidazol-2-ylmethoxy}benzyl)thiazolidine-2,4-dione], the inhibition at 0.001 µM is 51%.
Take `CCCc1nc2c(C)cc(-c3nc4ccc(N(C)CCOc5ccc6nc(COc7ccc(CC8SC(=O)NC8=O)cc7)n(C)c6c5)cc4n3C)cc2n1Cc1ccc(-c2ccccc2-c2nnn[nH]2)cc1` (centres unmarked) [Example 3, 5-[4-[6-{2-(N-(1-methyl-2-[4-methyl-2-propyl-1-(2′-(1H-tetrazol-5-yl)biphenyl-4-ylmethyl)-1H-benzimidazol-6-yl]-1H-benzamidazol-6-yl)-N-methylamino)ethoxy}-1-methyl-1H-benzimidazol-2-ylmethoxy]benzyl]thiazolidine-2,4-dione]: the “Inhibition rate (%)” value is given as 60%.
`CCCc1nc(COc2ccc3nc(COc4ccc(CC5SC(=O)NC5=O)cc4)n(C)c3c2)c(C(=O)OCC)n1Cc1ccc(-c2ccccc2-c2nnn[nH]2)cc1` (centres unmarked) [Example 7, 4-{2-[4-(2,4-dioxothiazolidin-5-ylmethyl)phenoxymethyl]-1-methyl-1H-benzimidazol-6-yloxymethyl}-2-propyl-1-[2′-(1H-tetrazol-5-yl)biphenyl-4-ylmethyl]-1H-imidazole-5-carboxylic acid ethyl ester]: the inhibition at 0.001 µM is 52%.
Same read-out and setting: the value for `CCCc1nc2c(C)cc(CN(C)c3ccc4nc(COc5ccc(CC6SC(=O)NC6=O)cc5)n(C)c4n3)cc2n1Cc1ccc(-c2ccccc2C(=O)O)cc1` (centres unmarked) [Example 10, 4′-[6-(N-{2-[4-(2,4-dioxothiazolidin-5-ylmethyl)phenoxymethyl]-3-methyl-3H-imidazo[4,5-b]pyridin-5-yl}-N-methylaminomethyl)-4-methyl-2-propyl-1H-benzimidazol-1-ylmethyl]biphenyl-2-carboxylic acid] was 41%; that for `CCCc1nc(CSCCSc2ccc(Oc3ccc4nc(COc5ccc(CC6SC(=O)NC6=O)cc5)n(C)c4c3)cc2)c(C(=O)OCC)n1Cc1ccc(-c2ccccc2-c2nnn[nH]2)cc1` (centres unmarked) [Example 14, 4-[2-[4-{1-methyl-2-(4-(2,4-dioxothiazolidin-5-ylmethyl)phenoxymethyl)-1H-benzimidazol-6-yloxy}phenylthio]ethylthiomethyl]-2-propyl-1-[2′-(1H-tetrazol-5-yl)biphenyl-4-ylmethyl]-1H-imidazole-5-carboxylic acid ethyl ester] was 38%.
In the case of `CCCc1nc(CSCCOc2ccc3nc(COc4ccc(CC5SC(=O)NC5=O)cc4)n(C)c3c2)c(C(=O)OCC)n1Cc1ccc(-c2ccccc2-c2nnn[nH]2)cc1` (centres unmarked) [Example 15, 4-[2-[1-methyl-2-{4-(2,4-dioxothiazolidin-5-ylmethyl)phenoxymethyl}-1H-benzimidazol-6-yloxy]ethylthiomethyl]-2-propyl-1-[2′-(1H-tetrazol-5-yl)biphenyl-4-ylmethyl]-1H-imidazole-5-carboxylic acid ethyl ester], the inhibition at 0.001 µM turned out to be 47%.
For `CCCc1nc(CSCCNC(=O)CSc2ccc3nc(COc4ccc(CC5SC(=O)NC5=O)cc4)n(C)c3c2)c(C(=O)OCC)n1Cc1ccc(-c2ccccc2-c2nnn[nH]2)cc1` (centres unmarked) [Example 19], the “Inhibition rate (%)” value is recorded as 65%.
In the case of `CCCc1nc2c(C)cc(-c3nc4ccc(N(C)CCOc5ccc(CC6SC(=O)NC6=O)cc5)cc4n3C)cc2n1Cc1ccc(-c2ccccc2C(=O)O)cc1` (centres unmarked) [Example 22, 4′-[6-{6-(N-2-[4-(2,4-dioxothiazolidin-5-ylmethyl)phenoxy]ethyl-N-methylamino)-1-methyl-1H-benzimidazol-2-yl}-4-methyl-2-propyl-1H-benzimidazol-1-ylmethyl]biphenyl-2-carboxylic acid], the inhibition at 0.001 µM was 60%.
As for `CCCCc1nc(Cl)c(C[S+]([O-])c2ccc3nc(COc4ccc(CC5SC(=O)NC5=O)cc4)n(C)c3c2)n1Cc1ccc(-c2ccccc2-c2nnn[nH]2)cc1` (centres unmarked) [Example 23, 5-(4-{6-[2-butyl-4-chloro-1-[2′-(1H-tetrazol-5-yl)biphenyl-4-ylmethyl]-1H-imidazol-5-ylmethylsulfinyl]-1-methyl-1H-benzimidazol-2-ylmethoxy}benzyl)thiazolidine-2,4-dione], the inhibition at 0.001 µM amounted to 22%.
For the molecule `CCCc1nc(C[S+]([O-])c2ccc(Oc3ccc4nc(COc5ccc(CC6SC(=O)NC6=O)cc5)n(C)c4c3)cc2)c(C(=O)OCC)n1Cc1ccc(-c2ccccc2-c2nnn[nH]2)cc1` (centres unmarked) [Example 25, 4-[4-{2-[4-(2,4-dioxothiazolidin-5-ylmethyl)phenoxymethyl]-1-methyl-1H-benzimidazol-6-yloxy}phenylsulfinylmethyl]-2-propyl-1-[2′-(1H-tetrazol-5-yl)biphenyl-4-ylmethyl]-1H-imidazole-5-carboxylic acid ethyl ester], the inhibition at 0.001 µM turned out to be 32%.
On to `CCCc1nc(CS(=O)(=O)c2ccc(Oc3ccc4nc(COc5ccc(CC6SC(=O)NC6=O)cc5)n(C)c4c3)cc2)c(C(=O)OCC)n1Cc1ccc(-c2ccccc2-c2nnn[nH]2)cc1` (centres unmarked) [Example 26, 4-[4-{2-[4-(2,4-dioxothiazolidin-5-ylmethyl)phenoxymethyl]-1-methyl-1H-benzimidazol-6-yloxy}phenylsulfonylmethyl]-2-propyl-1-[2′-(1H-tetrazol-5-yl)biphenyl-4-ylmethyl]-1H-imidazole-5-carboxylic acid ethyl ester], for which the inhibition at 0.001 µM came to 44%.
`CCCc1nc(CSc2ccc(Oc3ccc4nc(COc5ccc(CC6SC(=O)NC6=O)cc5)n(C)c4c3)cc2)c(C(=O)NC)n1Cc1ccc(-c2ccccc2-c2nnn[nH]2)cc1` (centres unmarked) [Example 27, N-methyl-(4-[4-{2-[4-(2,4-dioxothiazolidyn-5-ylmethyl)phenoxymethyl]-1-methyl-1H-benzimidazol-6-yloxy}phenylthiomethyl]-2-propyl-1-[2′-(1H-tetrazol-5-yl)biphenyl-4-ylmethyl]-1H-imidazole)-5-carboxamide]: the “Inhibition rate (%)” value turned out to be 66%.
Turning to `CCCc1nc2c(C)cc(C(=O)NCc3ccc(Oc4ccc5nc(COc6ccc(CC7SC(=O)NC7=O)cc6)n(C)c5c4)cc3)cc2n1Cc1ccc(-c2ccccc2-c2nnn[nH]2)cc1` (centres unmarked) [Example 28, 5-[4-[6-{4-(4-methyl-2-propyl-1-[2′-(1H-tetrazol-5-yl)biphenyl-4-ylmethyl]-1H-benzimidazol-6-ylcarbonylaminomethyl)phenoxy}-1-methyl-1H-benzimidazol-2-ylmethoxy]benzyl]thiazolidin-2,4-dione], the inhibition at 0.001 µM worked out at 66%.
For the molecule `CCCc1nc(COc2ccc(Sc3ccc4nc(COc5ccc(CC6SC(=O)NC6=O)cc5)n(C)c4c3)cc2)c(C(=O)OCC)n1Cc1ccc(-c2ccccc2-c2nnn[nH]2)cc1` (centres unmarked) [Example 29, 4-[4-{2-[4-(2,4-dixothiazolidin-5-ylmethyl)phenoxymethyl]-1-methyl-1H-benzimidazol-6-ylthio}phenoxymethyl]-2-propyl-1-[2′-(1H-tetrazol-5-yl)biphenyl-4-ylmethyl]-1H-imidazole-5-carboxylic acid ethyl ester], the “Inhibition rate (%)” value is listed as 40%.

These data come from patent publication US20130165446A1 (priority 2010, published 2013).
